Two compounds from publication PMC2664976 (The Journal of General Physiology, 2009) can be followed below.

Test [1] concerns the target T1, SLC26A9 (Homo sapiens, UniProt Q7LBE3).
T1 sequence (Q7LBE3 1-791): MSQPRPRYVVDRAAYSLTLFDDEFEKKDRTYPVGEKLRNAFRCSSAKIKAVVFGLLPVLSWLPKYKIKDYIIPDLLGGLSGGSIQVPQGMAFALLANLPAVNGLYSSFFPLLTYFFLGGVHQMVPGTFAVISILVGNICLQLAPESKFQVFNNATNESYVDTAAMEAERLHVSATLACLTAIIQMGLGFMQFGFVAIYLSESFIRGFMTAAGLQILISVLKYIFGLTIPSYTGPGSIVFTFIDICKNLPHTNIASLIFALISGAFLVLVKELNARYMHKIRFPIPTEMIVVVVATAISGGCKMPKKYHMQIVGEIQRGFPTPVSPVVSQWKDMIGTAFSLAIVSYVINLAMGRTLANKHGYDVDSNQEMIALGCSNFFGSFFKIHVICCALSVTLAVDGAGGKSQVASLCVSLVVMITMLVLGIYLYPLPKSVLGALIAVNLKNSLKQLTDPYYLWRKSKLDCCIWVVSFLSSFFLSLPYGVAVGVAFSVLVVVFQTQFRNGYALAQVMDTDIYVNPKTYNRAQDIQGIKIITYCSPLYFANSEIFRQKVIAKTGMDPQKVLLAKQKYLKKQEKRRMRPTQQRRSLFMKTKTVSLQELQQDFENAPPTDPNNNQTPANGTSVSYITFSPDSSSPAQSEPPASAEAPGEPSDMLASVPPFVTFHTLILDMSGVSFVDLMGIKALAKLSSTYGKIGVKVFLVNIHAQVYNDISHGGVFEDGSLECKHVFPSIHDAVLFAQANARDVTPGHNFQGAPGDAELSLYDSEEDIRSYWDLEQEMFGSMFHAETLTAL
As to the kind of experiment: whole cell patch clamp, HEK […] chloride current. The class given is cell-based. The settings on record: read-out: % inhibition at 50 μM. For orientation: Patch clamp records ionic current or voltage across a cell membrane.

In test [2] the target is wtCFTR (Homo sapiens, UniProt P13569). As to the kind of experiment: whole cell patch clamp, HEK […] chloride current. The class given is cell-based.

The structures appear in SMILES notation.

Chain of wtCFTR (P13569 whole entry): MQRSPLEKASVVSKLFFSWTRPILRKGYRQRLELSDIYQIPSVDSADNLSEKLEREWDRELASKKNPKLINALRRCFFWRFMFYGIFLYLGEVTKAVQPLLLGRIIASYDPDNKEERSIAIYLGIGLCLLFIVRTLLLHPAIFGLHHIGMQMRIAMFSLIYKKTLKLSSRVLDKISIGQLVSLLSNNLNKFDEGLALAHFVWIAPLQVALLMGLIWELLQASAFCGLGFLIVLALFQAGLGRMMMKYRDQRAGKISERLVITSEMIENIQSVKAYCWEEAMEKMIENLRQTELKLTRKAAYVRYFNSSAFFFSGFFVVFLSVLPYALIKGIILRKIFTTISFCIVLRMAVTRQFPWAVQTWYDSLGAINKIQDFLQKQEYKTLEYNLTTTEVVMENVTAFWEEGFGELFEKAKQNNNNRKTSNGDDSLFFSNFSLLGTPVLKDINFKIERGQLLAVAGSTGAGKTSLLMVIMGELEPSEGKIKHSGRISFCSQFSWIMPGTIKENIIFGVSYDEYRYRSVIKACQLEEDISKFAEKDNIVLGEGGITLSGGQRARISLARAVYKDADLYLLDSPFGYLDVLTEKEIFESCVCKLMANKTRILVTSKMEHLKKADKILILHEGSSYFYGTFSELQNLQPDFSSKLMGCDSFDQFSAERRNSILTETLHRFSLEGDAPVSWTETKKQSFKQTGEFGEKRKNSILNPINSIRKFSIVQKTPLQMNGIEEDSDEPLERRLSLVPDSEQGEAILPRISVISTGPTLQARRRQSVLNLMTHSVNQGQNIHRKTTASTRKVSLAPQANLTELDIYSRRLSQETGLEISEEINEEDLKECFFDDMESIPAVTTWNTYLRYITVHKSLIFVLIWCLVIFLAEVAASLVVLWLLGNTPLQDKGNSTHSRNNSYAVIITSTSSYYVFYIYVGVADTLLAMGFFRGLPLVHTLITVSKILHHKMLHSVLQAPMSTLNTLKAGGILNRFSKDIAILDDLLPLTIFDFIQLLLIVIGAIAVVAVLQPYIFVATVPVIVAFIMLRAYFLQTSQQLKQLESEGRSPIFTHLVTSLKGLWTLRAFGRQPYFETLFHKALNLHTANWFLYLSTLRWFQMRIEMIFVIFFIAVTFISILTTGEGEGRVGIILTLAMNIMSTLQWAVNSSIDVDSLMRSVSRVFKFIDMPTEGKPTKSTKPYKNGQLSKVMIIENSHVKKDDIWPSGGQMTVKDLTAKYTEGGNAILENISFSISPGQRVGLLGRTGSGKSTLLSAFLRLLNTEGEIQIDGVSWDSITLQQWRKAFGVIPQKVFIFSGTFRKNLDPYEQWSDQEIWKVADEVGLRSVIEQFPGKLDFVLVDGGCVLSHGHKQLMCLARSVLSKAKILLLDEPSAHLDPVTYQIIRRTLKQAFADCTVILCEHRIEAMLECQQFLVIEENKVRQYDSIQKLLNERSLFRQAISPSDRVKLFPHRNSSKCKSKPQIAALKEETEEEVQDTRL

Take `O=C(CNc1ccc2ccccc2c1)NN=Cc1cc(Br)c(O)c(Br)c1O` [GlyH-101]: the inhibition at 50 µM in test [1] stood at 71 ± 4%; in test [2] (read-out: % inhibition (GlyH-101, 50 μM)) it was 90 ± 2%.

Take `COc1ccc(Cl)cc1C(=O)NCCc1ccc(S(=O)(=O)NC(=O)NC2CCCCC2)cc1` [glibenclamide]: the inhibition at 100 µM in test [2] (read-out: % inhibition (glibenclamide, 100 μM)) turned out to be 52 ± 10%.

Usually inhibition stands for the change of the read-out against control, counted positive when it falls.
